Reference: US20160000851A1, “Bioactive Botanical Compositions and Uses Thereof” (AKZO NOBEL CHEMICALS INTERNATIONAL B.V., priority 2013, published 2016)
In brackets after ≈: the same amount, converted by molar mass.

Assays:
Assay type in all cases: cell-based
[1] = system: IL-8; experiment: Inhibition of SDS-induced IL-8 release in human epidermal keratinocytes (ELISA); conditions: HEK, SDS 6 μg/ml, 16 hours
Method: The protocols for the growth and treatment of human primary epidermal keratinocyte (HEK) cultures are as follows. HEK and all cell culture supplies were obtained from Life Technologies Co. (Carlsbad, Calif.). The cells were maintained in keratinocyte growth medium (KGM), which contains keratinocyte basal medium 154 (M154) and human keratinocyte growth supplements (HKGS). They were grown at 37° C. in an atmosphere of 5% (v/v) CO2 and used between passages from 2 to 4. For the treatment, keratinocytes were trypsinized by Trypsin 0.025%/EDTA 0.01% in Phosphate Buffered Saline, seeded in 96-well plates, and grown in KGM to about 80% confluence. The cells were then exposed to SDS (Sigma-Aldrich Co., St. Louis, Mo.) at various concentrations for about 16 hours. After incubation, the supernatants were collected, and IL-1α and IL-8 were quantified using Quantikine® ELISA (R&D Systems, Minneapolis, Minn.). […] IC50 was calculated using sigmoidal curve fitting with SigmaPlot Version 10.0 (Systat Software). […]
Treatment was conducted by incubation of HEK with SDS (25 μg/ml for induction of IL-1α or 6 μg/ml for induction of IL-8 as determined in Example 1) for 16 hours in presence of a range of concentrations of Recentia® CS, or conventional green tea preparation, or conventional black tea preparation.

[2] = system: IL-1α; experiment: Inhibition of ethoxylated alcohol-induced IL-1α release in human epidermal keratinocytes (ELISA); conditions: HEK, ethoxylated alcohol 1000 μg/ml, 16 hours
Method: Treatment was conducted by incubation of HEK with ethoxylated alcohol (1000 μg/ml for induction of IL-1α as determined in Example 3) for 16 hours in presence of a range of concentrations of Recentia® CS, or Aspirin.
Treatment was conducted by incubation of HEK with ethoxylated alcohol (500 μg/ml for induction of IL-1α, as determined in Example 3) for 16 hours in presence of a range of concentrations of Recentia® CS, or conventional green tea preparation or conventional black tea preparation.

[3] = system: IL-1α; experiment: Inhibition of SDS-induced IL-1α release in human epidermal keratinocytes (ELISA); conditions: Keratinocyte, HEK, SDS 25 μg/ml, 16 hours, read-out: Estimated IC50 for inhibition of SDS-induced IL-1α release
[4] = system: IL-8; experiment: Inhibition of basal level non-induced IL-8 release in human epidermal keratinocytes; conditions: HEK, 16 hours
Method: (§1) The protocols for the growth and treatment of human primary epidermal keratinocyte (HEK) cultures are as follows. HEK and all cell culture supplies were obtained from Life Technologies Co. (Carlsbad, Calif.). The cells were maintained in keratinocyte growth medium (KGM), which contains keratinocyte basal medium 154 (M154) and human keratinocyte growth supplements (HKGS). They were grown at 37° C. in an atmosphere of 5% (v/v) CO2 and used between passages from 2 to 4. For the treatment, keratinocytes were trypsinized by Trypsin 0.025%/EDTA 0.01% in Phosphate Buffered Saline, seeded in 96-well plates, and grown in KGM to about 80% confluence. The cells were then exposed to SDS (Sigma-Aldrich Co., St. Louis, Mo.) at various concentrations for about 16 hours. After incubation, the supernatants were collected, and IL-1α and IL-8 were quantified using Quantikine® ELISA (R&D Systems, Minneapolis, Minn.). Results were presented as the mean±standard deviation. IC50 was calculated using sigmoidal curve fitting with SigmaPlot Version 10.0 (Systat Software). LDH (lactate dehydrogenase) assay (G-Biosciences, St. Louis, Mo.) was performed on all the supernatants to assess cytotoxicity.
The protocols for the growth of HEK are described under Example 1.

[5] = system: IL-8; experiment: Surfactant induction of IL-8 release in human epidermal keratinocytes; conditions: HEK, 16 hours, SDS at 6 μg/ml
Method: as §1
(§2) The protocols for the growth of HEK are described under Example 1. Instead of SDS, the keratinocytes were exposed to a range of concentrations of ethoxylated alcohol for about 16 hours.

[6] = system: IL-1α; experiment: Surfactant induction of IL-1α release in human epidermal keratinocytes; conditions: HEK, 16 hours, SDS at 25 μg/ml
Method: as §1, §2

[7] = system: human epidermal keratinocytes (HEK); experiment: Mildness ranking of surfactants by LDH cytotoxicity and IL-1α release in HEK; conditions: based on LDH cytotoxicity and IL-1α induction in HEK
Method: as §1, with “cytotoxicity. […]” for “cytotoxicity.”

Structure (SMILES): CC(=O)Oc1ccccc1C(=O)O [Aspirin]
- Inhibition of SDS-induced IL-8 release (in words) [1]: did not inhibit SDS-induced release of inflammatory chemokine IL-8
- Inhibition of ethoxylated alcohol-induced IL-1α release (in words) [2]: failed to inhibit IL-1α release induced by the ethoxylated alcohol
- IC50 [3]: ~230 µg/mL (≈ 1280 µM)

Structure (SMILES): C[S+]([O-])c1ccc(-c2nc(-c3ccncc3)c(-c3ccc(F)cc3)[nH]2)cc1 (stereo not shown) [SB203580]
- Inhibition of basal level non-induced IL-8 release (in words) [4]: inhibited SDS-induced IL-8 only

Structure (SMILES): CCCCCCCCCCCCOS(=O)(=O)[O-].[Na+] [SDS, Sodium Dodecyl Sulfate]
- Induction of IL-8 release by surfactant [5]: significant (p<0.001) induction of IL-8
- Induction of IL-1α release by surfactant [6]: significant (p<0.001) induction of IL-1α
- Mildness/harshness rank among six tested surfactants [7]: close to the harshest surfactant
